Laboratory results taken from patent US20230032934A1, “METHOD OF PRODUCING TUMOR-REACTIVE T CELL COMPOSITION USING MODULATORY AGENTS” (Myst Therapeutics, LLC, priority 2019, published 2023).
“Also recorded” adds a separate entry of the source. Where a SMILES comes first, the peptide text is derived from it. The star is where a group is joined. Cbz = O=C(OCc1ccccc1)*; CH2F = FC*

Key:
[1] = test system: T-cells from three healthy donors; assay: Activation markers on CD4+ and CD8+ T cells after OKT3 activation, flow cytometry; type: cell-based, human; conditions: 50 ng/mL OKT3 vs no OKT3; 3-48 hours
Protocol: Specific markers of activation on the CD4+ and CD8+ cell populations were measured using flow cytometry over a time course of 3-48 hours. Specifically, the following markers were assessed: CD38 and CD39 (FIG. 12A and FIG. 13A), CD134 and CD137 (FIG. 12B and FIG. 13B), and CD69 and CD90 (FIG. 12C and FIG. 13C).

[2] = test system: cells processed from melanoma tumor fragments; assay: Anti-CD3 (OKT3) stimulation on expansion of melanoma tumor-derived cells; type: cell-based, human
Protocol: Cells processed from melanoma tumor fragments as described in Examples 1 and 2, were cultured in the presence or absence of 50 ng/mL OKT3, a human anti-CD3 monoclonal antibody. Cell cultures were carried out to between 14 and 31 days, such as between 14 and 21 days, in either a conventional 6-well plate or a gas permeable culture plate with RPMI or OpTmizer media. […] About 50% of cellular media was exchanged every other day beginning on the 5th day of culture as described previously. Cells were then counted using the NC-200 Automated Cell Counter (Chemometec).

[3] = test system: expanded human T cells from three healthy donors; assay: Cytokines, modulators and agonist antibodies with IL-2 on T cell number and naive/central memory phenotype; type: cell-based
Protocol: PBMC from three healthy donors were activated, expanded, and cryopreserved as described in Example 11. […] As previously described, stimulation of the healthy donor T cells prior to cryopreservation were carried out with anti-CD3 (OKT3) stimulation in order to mimic conditions present in the tumor microenvironment (TME).
Cells were next seeded into gas permeable 100M culture vessels and expanded for 7-14 days to achieve a large bank of T cells, and cryopreserved.
Cells were maintained in culture for 6 days, with a 50% medium exchange occurring at 3 days post culture initiation.
At the end of the culture period for all culture conditions, cells were assessed for cell count and sub-phenotypes of naïve and central memory T cells by flow cytometry by staining with CD45RA and CCR7 (naïve, CD45RA+ CCR7+; “central” memory, CD45RA− CCR7+).

[4] = test system: CRC tumor fragment or SCS cultures; assay: Caspase inhibition in tumor processing (tumor fragment and SCS cultures); type: cell-based, human; conditions: 2 μM replenished at each media exchange
Protocol: Half of cultures contained media additionally supplemented with 2 μM of pan-caspase inhibitor Z-VAD-FMK which was replenished at each media exchange. Cultures were incubated at about 37° C. for a minimum of 18 days with a 50% medium exchange occurring every 2-3 days following culture day 5. Cell counts were performed on day 5 and at each medium exchange using the NC-200 Automated Cell Counter (ChemoMetec).

[5] = test system: PBMC from three healthy donors; assay: T cell expansion with FasL blockade or caspase inhibition, anti-CD3 (OKT3) stimulation; type: cell-based, human; conditions: OKT3 activation; agent replenished at each media exchange (continuous); 2 μM Z-VAD-FMK or 500 ng/ml NOK-1
Protocol: Apoptotic inhibitors directed against Fas- and caspase-mediated pathways were assessed to determine effects on tumor reactive T cells during manufacturing. The studies were carried out in healthy donors, and thus, stimulation of the T cells were carried out with anti-CD3 (OKT3) or anti-CD3/anti-CD28 stimulation in order to mimic conditions present in the tumor microenvironment (TME). Constant activation signals present in the tumor microenvironment, as can be stimulated by anti-CD3 or anti-CD3/anti-CD28 activation can be detrimental to T cell growth. Cellular viability and projected cell numbers were used to compare the impact of modulation of apoptotic pathways in both a transient and a continuous activation assay, the latter of which more closely recapitulates the tumor microenvironment.
Cells were then seeded into a 24-well gas permeable cell culture plate at a density of 2.14×10^5 cells/mL (7.5×10^5 cells/cm^2). Cells were activated for 48 hours using 50 ng/ml OKT3, a human anti-CD3 monoclonal antibody, and were additionally treated with agents as described below. […]
Cultures were maintained for at least 13 days with a 50% media exchange every other day beginning on culture day 2. Cell counts and viability were monitored every other day. […]

[6] = test system: PBMC from two healthy donors; assay: T cell expansion with FasL blockade or caspase inhibition, anti-CD3/anti-CD28 bead stimulation (transient or continuous activation); type: cell-based, human
Protocol: Cells were then seeded into a 24-well gas permeable cell culture plate at a density of 1.5×10^5 cells/mL (5.0×10^5 cells/cm^2).
Culture wells were assigned to one of two treatment groups, transient or continuous activation. For transient activation, anti-CD3/anti-CD28 paramagnetic beads (Dyanbeads™) were added to the culture media at a ratio of 1 bead per cell starting on culture day 0, and then were removed during media exchange on day 2. For continuous activation, anti-CD3/anti-CD28 paramagnetic beads (Dyanbeads™) were added to the culture media at a ratio of 1 bead per cell starting on culture day 0, and then added again on Day 4, and again on Day 6 at a ratio of 1 bead per cell. The anti-CD3/anti-CD28 paramagnetic beads were not removed on Day 2, 4 or 6.
For both the continuous and transient activation, culture wells were assigned to one of five treatment groups as described above for 10 conditions total per donor.
Cell counts and viability were monitored every other day. When cells reached 3×10^6 cells/ml, 1.5×10^6 cells were sub-cultured into a new well of a 24-well gas permeable culture plate with 7 mL final volume of medium and the culture continued as described above.

[7] = test system: expanded human T cells from three healthy donors; assay: Effect of T cell adjuvants on T cell viability (total viable CD3+ cell count, with and without OKT3); type: cell-based; conditions: 10 μg/mL for antibodies, 25 μM for Z-VAD-FMK; 6 days; irrespective of activation status
Protocol: Cells were expanded from PBMC derived from Ficoll gradient separation from three healthy donor's apheresis material. […] Because the studies were carried out in healthy donors, stimulation of the T cells was carried out with anti-CD3 (OKT3) stimulation in order to mimic conditions present in the tumor microenvironment (TME).
Cells were next seeded into gas permeable 100M culture vessels and expanded for 7-14 days to achieve a large bank of T cells, and cryopreserved. […] Half of wells were additionally supplemented with 50 ng/mL OKT3, a human anti-CD3 monoclonal antibody. In total, 15 test adjuvant agents were tested for their impact on cell viability in the presence and absence of anti-CD3 activation (see Table E3). Cells were cultured for 6 days total, including a 50% medium exchange on culture day 3, and monitored for total viable CD3+ cell count.
Total viable CD3+ cell count for cells grown in the absence and presence of OKT3 stimulation are shown in FIGS. 27A-C and FIGS. 28A-C, respectively. The results shown are for the following concentrations of adjuvant: 10 μg/mL for tested antibodies (Tavolixizumab, Oxelumab, Ipilimumab, Tocilizumab, Urelumab, Pembrolizumab, Varlilumab, anti-GITR MK-1248, anto-human FasL); 25 μM for Z-VAD-FMK pan-caspase inhibitor; 250 nM for HSP inhibitor NVP-HSP990; and 1000 IU/mL for cytokine (IL-7, IL-15, IL-21, IL-23, IL-25, IL-27, or IL-35)).

Molecule | upregulation of activation markers CD38, CD39, CD134, CD137, CD69, CD90 on CD4+ T cells [1] | upregulation of activation markers CD38, CD39, CD134, CD137, CD69, CD90 on CD8+ T cells [1] | total cell number and fold expansion ([2]; 50 ng/mL OKT3 vs no OKT3, with 300 or 6000 IU/mL IL-2, 14-31 days) | fold expansion ([2]; Donor 6, presence or absence of anti-CD3 stimulation, all conditions) | percent of naïve and central memory T cells compared to IL-2 alone ([3]; 0.2 μg/mL-50 μg/mL, Day 6) | CD3+ cells/mL on Day 6 compared to IL-2 alone ([3]; concentrations higher than 0.2 μg/mL) | cell viability ([4]; SCS culture) | outgrowth of T cells ([4]; SCS culture) | cell viability ([4]; tumor fragment-derived culture) | outgrowth of cells (fold expansion, total viable cells) ([4]; tumor fragment-derived culture) | cell growth (total cell number) [5] | total viable cell number and viability ([6]; agent continuous, listed as caspase inhibitor) | total viable cell number and viability ([6]; agent transient (day 0 only)) | viable cell counts versus DMSO treatment control [7]
OKT3: a human anti-CD3 monoclonal antibody | all assessed markers were upregulated to some extent | all assessed markers were upregulated to some extent | did not substantially impact; also recorded: largely similar | 2-4 fold |  |  |  |  |  |  |  |  |  | 
COC(=O)C[C@H](NC(=O)[C@H](C)NC(=O)[C@@H](NC(=O)OCc1ccccc1)C(C)C)C(=O)CF [Z-VAD-FMK, carbobenzoxy-valyl-alanyl-aspartyl-[O-methyl]-fluoromethylketone] (Cbz-Val-Ala-Asp(OMe)-CH2F) |  |  |  |  | no effect | substantially increased | similarly high | not observed | also high | superior | greatest cell growth | outperformed the other conditions; also recorded: outperforming the transient condition | outperformed the other conditions | consistently higher viable cell counts
